This assay concerns the target T1, human ALX receptor (Homo sapiens, UniProt P25090).
T1 construct: expressed in transfected cells; host or cells: HEK293 (HEK293-hALXR-Ga16)
T1 sequence (P25090 1-351): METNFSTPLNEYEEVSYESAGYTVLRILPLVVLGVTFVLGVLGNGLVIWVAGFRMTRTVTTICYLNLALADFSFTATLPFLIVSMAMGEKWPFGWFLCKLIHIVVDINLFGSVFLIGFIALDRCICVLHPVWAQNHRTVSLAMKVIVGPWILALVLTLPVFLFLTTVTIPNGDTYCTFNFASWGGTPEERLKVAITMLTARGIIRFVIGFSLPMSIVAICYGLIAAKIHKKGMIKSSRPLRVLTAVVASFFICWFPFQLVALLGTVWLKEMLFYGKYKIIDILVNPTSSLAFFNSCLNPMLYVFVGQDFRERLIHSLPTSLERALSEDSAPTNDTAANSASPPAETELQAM
Description: Intracellular calcium measurements (FLIPR), ALX receptor agonistic activity. It counts as cell-based. The conditions noted are these: HEK293-hALXR-Ga16 cells, calcium flux, normalized to WKYMVm 10 nM; read-out: EC50 (agonistic activity with respect to the ALX receptor). The procedure:
The ALX receptor agonistic activity of the compounds of formula (I) is determined in accordance with the following experimental method.
Intracellular Calcium Measurements:
Cells expressing recombinant human ALX receptor and the G-protein Ga16 (HEK293-hALXR-Ga16) were grown to 80% confluency in Growing Medium (GM). Cells were detached from culture dishes with a cell dissociation buffer (Invitrogen, 13151-014), and collected by centrifugation at 1′000 rpm at rt for 5 min in Assay Buffer (AB) (equal parts of Hank's BSS (Gibco, 14065-049) and DMEM without Phenol Red (Gibco, 11880-028)). After 60 min incubation at 37° C. under 5% CO2 in AB supplemented with 1 μM Fluo-4 (AM) (Invitrogen, F14202) and 20 mM HEPES (Gibco, 15630-056), the cells were washed and resuspended in AB. They were then seeded onto 384-well FLIPR assay plates (Greiner, 781091) at 50′000 cells in 70 μl per well and sedimented by centrifugation at 1′000 rpm for 1 min. Stock solutions of test compounds were made up at a concentration of 10 mM in DMSO, and serially diluted in AB to concentrations required for activation dose response curves. WKYMVm (Phoenix Peptides) was used as a reference agonist. A FLIPR Tetra instrument (Molecular Devices) was operated according to the manufacturer's standard instructions, adding 4 μl of test compound dissolved at 10 mM in DMSO and diluted prior to the experiment in assay buffer to obtain the desired final concentration. Changes in fluorescence were monitored before and after the addition of test compounds at lex=488 nm and lem=540 nm. Emission peak values above base level after compounds addition were exported after base line subtraction. Values were normalized to high-level control (WKYMVm compound, 10 nM final concentration) after subtraction of the base line value (AB addition).
On the technique in general: Calcium flux is commonly read through the fluorescence of an indicator in the cells.
Broadly, the EC50 is the concentration that produces a half-maximal response. As to `Cc1cccc(-c2oc(C)nc2C(=O)Nc2cnn(Cc3ccc(C(C)(F)F)o3)n2)c1` [Example 1, 2-Methyl-5-m-tolyl-oxazole-4-carboxylic acid {2-[5-(1,1-difluoro-ethyl)-furan-2-ylmethyl]-2H-[1,2,3]triazol-4-yl}-amide], the half-maximal effective concentration (EC50) was 8.1 nM.

Take `CC(F)(F)c1csc(Cn2ncc(NC(=O)c3ncoc3-c3ccccc3)n2)n1` [Example 2, 5-Phenyl-oxazole-4-carboxylic acid {2-[4-(1,1-difluoro-ethyl)-thiazol-2-ylmethyl]-2H-[1,2,3]triazol-4-yl}-amide]: the concentration for a half-maximal effect (EC50) worked out at 19 nM.

For `Cc1cccc(-c2oc(C)nc2C(=O)Nc2cnn(Cc3nc(C(C)(F)F)cs3)n2)c1` [Example 3, 2-Methyl-5-m-tolyl-oxazole-4-carboxylic acid{2-[4-(1,1-difluoro-ethyl)-thiazol-2-ylmethyl]-2H-[1,2,3]triazol-4-yl}-amide], the EC50 stood at 7.7 nM.

As for `Cc1nc(C(=O)Nc2cnn(Cc3ccc(C(C)(F)F)o3)n2)c(-c2ccccc2)o1` [Example 4, 2-Methyl-5-phenyl-oxazole-4-carboxylic acid{2-[5-(1,1-difluoro-ethyl)-furan-2-ylmethyl]-2H-[1,2,3]triazol-4-yl}-amide], the EC50 was 0.9 nM.

For the compound `Cc1nc(C(=O)Nc2cnn(Cc3nc(C(C)(F)F)cs3)n2)c(-c2cc(F)cc(F)c2)o1` [Example 5, 5-(3,5-Difluoro-phenyl)-2-methyl-oxazole-4-carboxylic acid {2-[4-(1,1-difluoro-ethyl)-thiazol-2-ylmethyl]-2H-[1,2,3]triazol-4-yl}-amide], the EC50 stood at 818 nM.

Regarding `Cc1nc(C(=O)Nc2cnn(Cc3nc(C(C)(F)F)cs3)n2)c(-c2cccc(C(F)(F)F)c2)o1` [Example 6, 2-Methyl-5-(3-trifluoromethyl-phenyl)-oxazole-4-carboxylic acid {2-[4-(1,1-difluoro-ethyl)-thiazol-2-ylmethyl]-2H-[1,2,3]triazol-4-yl}-amide], the EC50 came out at 14 nM.

`CC(F)(F)c1ccc(Cn2ncc(NC(=O)c3ncoc3-c3cccc(Cl)c3)n2)o1` [Example 7, 5-(3-Chloro-phenyl)-oxazole-4-carboxylic acid{2-[5-(1,1-difluoro-ethyl)-furan-2-ylmethyl]-2H-[1,2,3]triazol-4-yl}-amide]: the 50% effective concentration (EC50) is 17 nM.

Turning to `COc1cccc(-c2ocnc2C(=O)Nc2cnn(Cc3nc(C(C)(F)F)cs3)n2)c1` [Example 8, 5-(3-Methoxy-phenyl)-oxazole-4-carboxylic acid{2-[4-(1,1-difluoro-ethyl)-thiazol-2-ylmethyl]-2H-[1,2,3]triazol-4-yl}-amide], the EC50 was determined as 69 nM.

As to `CC(F)(F)c1csc(Cn2ncc(NC(=O)c3nc(C4CC4)oc3-c3ccccc3)n2)n1` [Example 9, 2-Cyclopropyl-5-phenyl-oxazole-4-carboxylic acid{2-[4-(1,1-difluoro-ethyl)-thiazol-2-ylmethyl]-2H-[1,2,3]triazol-4-yl}-amide], the concentration for a half-maximal effect (EC50) was determined as 291 nM.

On to `Cc1nc(C(=O)Nc2cnn(Cc3nc(C(C)(F)F)cs3)n2)c(-c2ccccc2)o1` [Example 10, 2-Methyl-5-phenyl-oxazole-4-carboxylic acid{2-[4-(1,1-difluoro-ethyl)-thiazol-2-ylmethyl]-2H-[1,2,3]triazol-4-yl}-amide], for which the concentration giving a half-maximal response (EC50) is 6.3 nM.

`CC(F)(F)c1ccc(Cn2ncc(NC(=O)c3ncoc3-c3cccc(F)c3)n2)o1` [Example 11, 5-(3-Fluoro-phenyl)-oxazole-4-carboxylic acid {2-[5-(1,1-difluoro-ethyl)-furan-2-ylmethyl]-2H-[1,2,3]triazol-4-yl}-amide]: the EC50 is 9.9 nM.

Turning to `CC(F)(F)c1csc(Cn2ncc(NC(=O)c3ncoc3-c3cccc(Cl)c3)n2)n1` [Example 12, 5-(3-Chloro-phenyl)-oxazole-4-carboxylic acid{2-[4-(1,1-difluoro-ethyl)-thiazol-2-ylmethyl]-2H-[1,2,3]triazol-4-yl}-amide], the 50% effective concentration (EC50) was found to be 46 nM.

`Cc1cc(F)cc(-c2oc(C)nc2C(=O)Nc2cnn(Cc3nc(C(C)(F)F)cs3)n2)c1` [Example 13, 5-(3-Fluoro-5-methyl-phenyl)-2-methyl-oxazole-4-carboxylic acid{2-[4-(1,1-difluoro-ethyl)-thiazol-2-ylmethyl]-2H-[1,2,3]triazol-4-yl}-amide]: the EC50 turned out to be 1130 nM.

Turning to `Cc1nc(C(=O)Nc2cnn(Cc3nc(C(C)(F)F)cs3)n2)c(-c2cccc(OC(F)(F)F)c2)o1` [Example 14, 2-Methyl-5-(3-trifluoromethoxy-phenyl)-oxazole-4-carboxylic acid{2-[4-(1,1-difluoro-ethyl)-thiazol-2-ylmethyl]-2H-[1,2,3]triazol-4-yl}-amide], the EC50 amounted to 58 nM.

`Cc1nc(C(=O)Nc2cnn(Cc3ccc(C(C)(F)F)o3)n2)c(-c2cccc(Cl)c2)o1` [Example 15, 5-(3-Chloro-phenyl)-2-methyl-oxazole-4-carboxylic acid{2-[5-(1,1-difluoro-ethyl)-furan-2-ylmethyl]-2H-[1,2,3]triazol-4-yl}-amide]: the EC50 was 23 nM.

On to `CC(F)(F)c1ccc(Cn2ncc(NC(=O)c3ncoc3-c3ccc(F)cc3)n2)o1` [Example 16, 5-(4-Fluoro-phenyl)-oxazole-4-carboxylic acid{2-[5-(1,1-difluoro-ethyl)-furan-2-ylmethyl]-2H-[1,2,3]triazol-4-yl}-amide], for which the EC50 was found to be 46 nM.

As to `Cc1cccc(-c2ocnc2C(=O)Nc2cnn(Cc3nc(C(C)(F)F)cs3)n2)c1` [Example 17, 5-m-Tolyl-oxazole-4-carboxylic acid {2-[4-(1,1-difluoro-ethyl)-thiazol-2-ylmethyl]-2H-[1,2,3]triazol-4-yl}-amide], the 50% effective concentration (EC50) amounted to 11 nM.

In the case of `Cc1nc(C(=O)Nc2cnn(Cc3ccc(C(C)(F)F)o3)n2)c(-c2cc(F)cc(F)c2)o1` [Example 18, 5-(3,5-Difluoro-phenyl)-2-methyl-oxazole-4-carboxylic acid {2-[5-(1,1-difluoro-ethyl)-furan-2-ylmethyl]-2H-[1,2,3]triazol-4-yl}-amide], the EC50 was determined as 661 nM.

With `CN(C)c1cccc(-c2ocnc2C(=O)Nc2cnn(Cc3ccc(C(C)(F)F)o3)n2)c1` [Example 19, 5-(3-Dimethylamino-phenyl)-oxazole-4-carboxylic acid {2-[5-(1,1-difluoro-ethyl)-furan-2-ylmethyl]-2H-[1,2,3]triazol-4-yl}-amide], the EC50 stood at 33 nM.

As to `CC(F)(F)c1csc(Cn2ncc(NC(=O)c3ncoc3-c3cccc(F)c3)n2)n1` [Example 20, 5-(3-Fluoro-phenyl)-oxazole-4-carboxylic acid {2-[4-(1,1-difluoro-ethyl)-thiazol-2-ylmethyl]-2H-[1,2,3]triazol-4-yl}-amide], the EC50 was 55 nM.

`COc1cccc(-c2ocnc2C(=O)Nc2cnn(Cc3ccc(C(C)(F)F)o3)n2)c1` [Example 21, 5-(3-Methoxy-phenyl)-oxazole-4-carboxylic acid {2-[5-(1,1-difluoro-ethyl)-furan-2-ylmethyl]-2H-[1,2,3]triazol-4-yl}-amide]: the concentration giving a half-maximal response (EC50) came out at 35 nM.

For `CN(C)c1cccc(-c2ocnc2C(=O)Nc2cnn(Cc3nc(C(C)(F)F)cs3)n2)c1` [Example 22, 5-(3-Dimethylamino-phenyl)-oxazole-4-carboxylic acid {2-[4-(1,1-difluoro-ethyl)-thiazol-2-ylmethyl]-2H-[1,2,3]triazol-4-yl}-amide], the EC50 turned out to be 52 nM.

In the case of `Cc1cccc(-c2ocnc2C(=O)Nc2cnn(Cc3ccc(C(C)(F)F)o3)n2)c1` [Example 23, 5-m-Tolyl-oxazole-4-carboxylic acid {2-[5-(1,1-difluoro-ethyl)-furan-2-ylmethyl]-2H-[1,2,3]triazol-4-yl}-amide], the EC50 was determined as 10 nM.

Turning to `Cc1nc(C(=O)Nc2cnn(Cc3ccc(C(C)(F)F)o3)n2)c(-c2cccc(C(F)(F)F)c2)o1` [Example 24, 2-Methyl-5-(3-trifluoromethyl-phenyl)-oxazole-4-carboxylic acid {2-[5-(1,1-difluoro-ethyl)-furan-2-ylmethyl]-2H-[1,2,3]triazol-4-yl}-amide], the EC50 stood at 2.1 nM.

In the case of `CC(F)(F)c1csc(Cn2ncc(NC(=O)c3ncoc3-c3ccc(F)cc3)n2)n1` [Example 25, 5-(4-Fluoro-phenyl)-oxazole-4-carboxylic acid {2-[4-(1,1-difluoro-ethyl)-thiazol-2-ylmethyl]-2H-[1,2,3]triazol-4-yl}-amide], the EC50 is 221 nM.

Source of the values: patent publication US8580831B2, “Fluorinated aminotriazole derivatives” (Actelion Pharmaceuticals Ltd., priority 2009, dated 2013).
